Measurements reported in the NIST ThermoML archive (doi:10.1016/j.jct.2015.06.010).
Numbers after ± are expanded uncertainties.

Details: 101.33 kPa, Liquid; for electrical conductivity: Alternating current cell with electrodes; for viscosity: Concentric cylinders viscometry; for mass density: Vibrating tube method

Cn1cc[n+](CC#N)c1.O=S(=O)([N-]S(=O)(=O)C(F)(F)F)C(F)(F)F
Details	electrical conductivity [S/m]	mass density [kg/m3]	viscosity [mPa·s]
283.15 K	0.0283 ± 0.0006	1625.9 ± 1.2	1140 ± 50
288.15 K	0.0439 ± 0.001	1620.5 ± 1.2	708.6 ± 28
293.15 K	0.0648 ± 0.0014	1615 ± 1.2	463.4 ± 16
298.15 K	0.0919 ± 0.0019	1609.7 ± 1.2	315.5 ± 10
303.15 K	0.129 ± 0.0027	1604.6 ± 1.2	222.8 ± 6.4
308.15 K	0.173 ± 0.0036	1599.6 ± 1.2	162.4 ± 4.2
313.15 K	0.225 ± 0.005	1594.6 ± 1.2	121.7 ± 2.9
318.15 K	0.285 ± 0.006	1589.8 ± 1.2	93.56 ± 2.1
323.15 K	0.36 ± 0.007	1584.8 ± 1.2	73.61 ± 1.6
328.15 K	0.441 ± 0.009	1579.9 ± 1.2	58.99 ± 1.2
333.15 K	0.536 ± 0.011	1575.1 ± 1.2	47.93 ± 1
338.15 K	0.644 ± 0.013	1570.2 ± 1.2	39.7 ± 0.84
343.15 K	0.756 ± 0.015	1565.4 ± 1.2	33.27 ± 0.7
348.15 K	0.878 ± 0.018	1560.6 ± 1.2	28.11 ± 0.59
353.15 K	1.01 ± 0.02	1555.8 ± 1.2	24.06 ± 0.51

Cn1cc[n+](CCO)c1.O=S(=O)([N-]S(=O)(=O)C(F)(F)F)C(F)(F)F
Details	electrical conductivity [S/m]	mass density [kg/m3]	viscosity [mPa·s]
283.15 K	0.132 ± 0.0028	1588.6 ± 1.2	213.4 ± 6
288.15 K	0.179 ± 0.0037	1583.6 ± 1.2	153.7 ± 3.9
293.15 K	0.237 ± 0.005	1578.6 ± 1.2	114.1 ± 2.7
298.15 K	0.305 ± 0.006	1573.7 ± 1.2	86.89 ± 1.9
303.15 K	0.387 ± 0.008	1568.8 ± 1.2	67.66 ± 1.5
308.15 K	0.481 ± 0.01	1563.9 ± 1.2	53.88 ± 1.1
313.15 K	0.589 ± 0.012	1559.1 ± 1.2	43.52 ± 0.92
318.15 K	0.704 ± 0.014	1554.2 ± 1.2	35.85 ± 0.76
323.15 K	0.83 ± 0.017	1549.4 ± 1.2	29.83 ± 0.63
328.15 K	0.967 ± 0.02	1544.6 ± 1.2	25.2 ± 0.53
333.15 K	1.11 ± 0.022	1539.8 ± 1.2	21.52 ± 0.45
338.15 K	1.28 ± 0.026	1535 ± 1.2	18.46 ± 0.39
343.15 K	1.45 ± 0.029	1530.2 ± 1.2	16.08 ± 0.34
348.15 K	1.63 ± 0.033	1525.5 ± 1.2	14.06 ± 0.3
353.15 K	1.81 ± 0.037	1520.7 ± 1.2	12.44 ± 0.26
